Measured values as given in US12194039B2, “Methods of treating heart failure by administering omecamtiv mecarbil” (Cytokinetics, Inc., priority 2020, dated 2025).
Where two headings read alike, the source gives them in different places.

Assays:
[1] = system: patients with heart failure; settings: result in words; cited from earlier work
[2] = sensitive BCRP substrate rosuvastatin 10 mg SD, with OM 50 mg SD
[3] = sensitive CYP3A substrate midazolam 5 mg SD, with OM 25 mg BID
[4] = sensitive MATE 1/2K substrate metformin 850 mg SD, with OM 25 mg BID
[5] = sensitive P-gp substrate digoxin 0.5 mg SD, with OM 50 mg SD

CC(C)c1nc(N(C)S(C)(=O)=O)nc(-c2ccc(F)cc2)c1/C=C/[C@@H](O)C[C@@H](O)CC(=O)O [Rosuvastatin]
% Change of co-administered drug AUC (↑ = increase) [2]: ↑27% | % Change of co-administered drug Cmax (↑ = increase) [2]: ↑45% | Mean Ratio of co-administered drug AUC (90% CI) [2]: 1.27 (1.14-1.42) | Mean Ratio of co-administered drug Cmax (90% CI) [2]: 1.54 (1.33-1.79)

COC(=O)Nc1c(N)nc(-c2nn(Cc3ccccc3F)c3ncc(F)cc23)nc1N [vericiguat]
Treatment efficacy at higher NT-proBNP concentrations [1]: declined

Cc1ncc2n1-c1ccc(Cl)cc1C(c1ccccc1F)=NC2 [Midazolam]
% Change of co-administered drug AUC (↓ = decrease) [3]: ↓18% | % Change of co-administered drug Cmax (↓ = decrease) [3]: ↓10% | Mean Ratio of co-administered drug AUC (90% CI) [3]: 0.82 (0.71-0.94) | Mean Ratio of co-administered drug Cmax (90% CI) [3]: 0.90 (0.75-1.08)

CN(C)C(=N)N=C(N)N [Metformin]
Mean Ratio of co-administered drug AUC (90% CI) [4]: 0.99 (0.92-1.05) | Mean Ratio of co-administered drug Cmax (90% CI) [4]: 1.10 (1.01-1.21)

C[C@H]1O[C@@H](O[C@H]2[C@@H](O)C[C@H](O[C@H]3[C@@H](O)C[C@H](O[C@H]4CC[C@@]5(C)[C@H](CC[C@@H]6[C@@H]5C[C@@H](O)[C@]5(C)[C@@H](C7=CC(=O)OC7)CC[C@]65O)C4)O[C@@H]3C)O[C@@H]2C)C[C@H](O)[C@@H]1O [Digoxin]
% Change of co-administered drug Cmax (↑ = increase) [5]: ↑8% | Mean Ratio of co-administered drug AUC (90% CI) [5]: 1.06 (0.99-1.14) | Mean Ratio of co-administered drug Cmax (90% CI) [5]: 1.08 (0.92-1.26)
